Literature values as cited in US20210060038A1, “COMPOSITIONS FOR ELIMINATING BACTERIAL PROMOTORS OF COLORECTAL CANCER BY INTRALUMINAL APPLICATION” (priority 2018, published 2021).
Like-named read-outs stand apart in the source and are kept apart here. One block for each compound: values may come before it.

Legend:
[1] = test system: IPEC-J2 cells; details: IPEC-J2 cells exposed at 580 μg/mL, within 15 minutes
[2] = not given; remark: listed apart in the source
[3] = in vivo
[4] = sealed sachets at room temperature
[5] = test system: mouse macrophage cell line
[6] = test system: Staphylococcus, Streptococcus, Enterococcus, Neisseria, Escherichia, Proteus (indole-negative), Serratia, Salmonella, Shigella, Pseudomonas, Haemophilus, and …
[7] = test system: indole-positive Proteus spp., Klebsiella and Enterobacter spp.
[8] = test system: anaerobic genus Fusobacterium
[9] = test system: polymorphonuclear leukocytes
[10] = not given; remark: listed apart in the source
[11] = test system: strains of organisms from the susceptible genera
[12] = test system: resistant bacterial strains; details: overall, controlled clinical trials, oral or intravenous
[13] = test system: anaerobic Bacteroides fragilis group of bacteria
[14] = test system: Pseudomonas aeruginosa; details: maximum
[15] = test system: anaerobic genera Peptostreptococcus (including Peptoniphilus, Finegoldia and Anaerococcus)
[16] = test system: human macrophages; details: extracellular concentrations 0.125 to 1 μg/mL
[17] = test system: human polymorphonuclear leukocytes; details: rapid passive diffusion

SMILES: C[C@@H]1O[C@@H]1P(=O)(O)O [Fosfomycin calcium monohydrate]
intracellular concentration [1]: ~30 µg/mL
pH of 0.4% solution (0.4% solution): 8.1-9.6
solubility in water ([2]; calcium monohydrate): sparingly soluble in water

SMILES: C[C@@H]1O[C@@H]1P(=O)(O)O [Fosfomycin disodium]
pH of 5% solution: 9.0-10.5
solubility in water [2]: highly soluble in water
bioavailability [3]: high bioavailability

SMILES: C[C@@H]1O[C@@H]1P(=O)(O)O.NC(CO)(CO)CO [Fosfomycin trometamol]
stability of granulate [4]: long-term stability
pH of 5% solution: 3.5-5.5
solubility in water [2]: highly soluble in water

SMILES: C[C@@H](O)[C@H]1C(=O)N2C(C(=O)O)=C(S[C@@H]3CN[C@H](C(=O)Nc4cccc(C(=O)O)c4)C3)[C@H](C)[C@H]12 [ertapenem]
extracellular concentration giving bactericidal intracellular concentrations [5]: ≥ 15 µg/mL

SMILES: C[C@@H]1O[C@@H]1P(=O)(O)O [fosfomycin, [(2R,3S)-3-methyloxiran-2-yl]phosphonic acid]
activity against aerobic genera [6]: active
activity against indole-positive Proteus spp., Klebsiella and Enterobacter spp. [7]: less active
activity against Fusobacterium [8]: active
concentration in polymorphonuclear leukocytes relative to extracellular fluid [9]: up to twice those of the extracellular fluid
eosinophilia ([10]; in vivo): 0.2%
transient rashes (allergy) ([10]; in vivo): 0.3 % of cases
transiently raised liver enzymes ([10]; systemically administered): 0.3 % of cases
synergistic effect, share of tested strains ([11]; early studies, various antibiotic combinations): 70-100%
synergy rates ([11]; subsequent more extensive studies): 36-74%
appearance of resistant bacterial strains [12]: 3.0%
activity against Bacteroides fragilis group [13]: inactive
appearance of resistant bacterial strains [14]: 15%
activity against Peptostreptococcus [15]: active

cellular to extracellular concentration ratio [16]: 3-12
SMILES: C[C@@H](O)[C@H]1C(=O)N2C(C(=O)O)=C(S[C@@H]3CN[C@H](C(=O)N(C)C)C3)[C@H](C)[C@H]12 [meropenem]

time for intracellular levels to approach equilibrium with extracellular levels [17]: ≤ 15 min
SMILES: Cc1ncc([N+](=O)[O-])n1CCO [metronidazole]
activity against Fusobacterium [8]: active
activity against Bacteroides fragilis group [13]: active
